Assay results: ChEMBL document CHEMBL4196033, “Potent hydrazone derivatives targeting esophageal cancer cells” (Eur J Med Chem, 2018)
Active and inactive are the calls of the source. The calls are words filed in the database; no cut-off is given here.

Experiments:
ECa-109 cell line [1] = assay: Induction of apoptosis in human EC109 cells assessed as early apoptotic cells at 4 uM after 48 hrs by Annexin V-FITC/propidium iodide staining based flow cytometry (reference value: 0.43 to 1.15%); type: functional
ECa-109 cell line [2] = assay: Antiproliferative activity against human EC109 cells after 24 hrs by MTT assay; type: functional, cell-based; settings: ECa-109, 24 h
ECa-109 cell line [3] = assay: Induction of apoptosis in human EC109 cells assessed as increase in cleaved caspase-9 protein expression after 48 hrs by Western blot analysis; type: functional, cell-based
EC9706 [4] = assay: Cell cycle arrest in human EC9706 cells assessed as increase in G0/G1 phase population at 8 uM after 24 hrs by propidium iodide staining based flow cytometry relative to control; type: functional
EC9706 [5] = assay: Antiproliferative activity against human EC9706 cells after 72 hrs by MTT assay; type: functional, cell-based; settings: EC9706, 72 h
ECa-109 cell line [6] = assay: Induction of apoptosis in human EC109 cells assessed as late apoptotic cells at 8 uM after 48 hrs by Annexin V-FITC/propidium iodide staining based flow cytometry (reference value: 0.2 to 1.74%); type: functional
EC9706 [7] = assay: Induction of apoptosis in human EC9706 cells assessed as early apoptotic cells at 8 uM after 48 hrs by Annexin V-FITC/propidium iodide staining based flow cytometry (reference value: 0.68 to 1.58%); type: functional
ECa-109 cell line [8] = assay: Induction of apoptosis in human EC109 cells assessed as live cells at 8 uM after 48 hrs by Annexin V-FITC/propidium iodide staining based flow cytometry (reference value: 95.2 to 99%); type: functional
ECa-109 cell line [9] = assay: Induction of ROS generation in human EC109 cells at 4 uM after 24 hrs by DCFH-DA staining based flow cytometry relative to control; type: functional
EC9706 [10] = assay: Effect on Prxs-1 protein expression in human EC9706 cells at 2 to 8 uM after 48 hrs by Western blot analysis; type: functional, cell-based
EC9706 [11] = assay: Effect on Prxs-5 protein expression in human EC9706 cells at 2 to 8 uM after 48 hrs by Western blot analysis; type: functional, cell-based
Mus musculus [12] = assay: Acute toxicity in C57BL/6 mouse assessed as change in body weight at 2 g/kg, ig measured for 2 weeks; type: organism-based; settings: in vivo, po, 2000 mg/kg, 336 h
ECa-109 cell line [13] = assay: Induction of apoptosis in human EC109 cells assessed as live cells at 4 uM after 48 hrs in presence of caspase inhibitor Z-VAD-FMK by Annexin V-FITC/propidium iodide staining based flow cytometry (reference value: 96.2%); type: functional
ECa-109 cell line [14] = assay: Induction of apoptosis in human EC109 cells assessed as late apoptotic cells at 4 uM after 48 hrs in presence of caspase inhibitor Z-VAD-FMK by Annexin V-FITC/propidium iodide staining based flow cytometry (reference value: 0.01%); type: functional
EC9706 [15] = assay: Induction of apoptosis in human EC9706 cells assessed as increase in cleaved caspase-8 protein expression after 48 hrs by Western blot analysis; type: functional, cell-based
ECa-109 cell line [16] = assay: Upregulation of p27 protein expression in human EC109 cells at 2 uM after 24 to 48 hrs by Western blot analysis relative to control; type: functional
GES1 [17] = assay: Antiproliferative activity against human GES-1 cells after 72 hrs by MTT assay; type: cell-based; settings: GES1, 72 h
EC9706 [18] = assay: Induction of apoptosis in human EC9706 cells assessed as necrotic cells at 2 uM after 48 hrs by Annexin V-FITC/propidium iodide staining based flow cytometry (reference value: 1.1 to 1.31%); type: functional
ECa-109 cell line [19] = assay: Induction of apoptosis in human EC109 cells assessed as necrotic cells at 2 uM after 48 hrs by Annexin V-FITC/propidium iodide staining based flow cytometry (reference value: 0.74 to 1.18%); type: functional
ECa-109 cell line [20] = assay: Induction of apoptosis in human EC109 cells assessed as live cells at 4 uM after 48 hrs by Annexin V-FITC/propidium iodide staining based flow cytometry (reference value: 95.2 to 99%); type: functional
ECa-109 cell line [21] = assay: Induction of apoptosis in human EC109 cells assessed as early apoptotic cells at 4 uM after 48 hrs in presence of caspase inhibitor Z-VAD-FMK by Annexin V-FITC/propidium iodide staining based flow cytometry (reference value: 0.52%); type: functional
MCF7 = assay: Antiproliferative activity against human MCF7 cells after 72 hrs by MTT assay; type: functional, cell-based; settings: MCF7, 72 h
GES1 [22] = assay: Antiproliferative activity against human GES-1 cells after 48 hrs by MTT assay; type: cell-based; settings: GES1, 48 h
[23] = Selectivity index, ratio of IC50 for antiproliferative activity against human GES-1 cells after 72 hrs to IC50 for antiproliferative activity against human MGC803 cells after 72 hrs; type: toxicity, cell-based; settings: GES-1 cells versus MGC803 cells, read-out: Ratio IC50
SMMC-7721 = assay: Antiproliferative activity against human SMMC7721 cells after 72 hrs by MTT assay; type: functional, cell-based; settings: SMMC-7721, 72 h
ECa-109 cell line [24] = assay: Induction of apoptosis in human EC109 cells assessed as increase in Bax protein expression after 48 hrs by Western blot analysis; type: functional, cell-based
ECa-109 cell line [25] = assay: Induction of apoptosis in human EC109 cells assessed as late apoptotic cells at 8 uM after 48 hrs in presence of caspase inhibitor Z-VAD-FMK by Annexin V-FITC/propidium iodide staining based flow cytometry (reference value: 0.01%); type: functional
EC9706 [26] = assay: Induction of ROS generation in human EC9706 cells at 2 uM after 24 hrs by DCFH-DA staining based flow cytometry relative to control; type: functional
EC9706 [27] = assay: Induction of apoptosis in human EC9706 cells assessed as necrotic cells at 4 uM after 48 hrs in presence of caspase inhibitor Z-VAD-FMK by Annexin V-FITC/propidium iodide staining based flow cytometry (reference value: 1.2%); type: functional
EC9706 [28] = assay: Upregulation of p27 protein expression in human EC9706 cells at 4 uM after 24 to 48 hrs by Western blot analysis relative to control; type: functional
EC9706 [29] = assay: Induction of morphological changes in human EC9706 cells assessed as apoptotic body formation after 48 hrs by Hoechst 33342 staining based fluorescence microscopic method; type: functional, cell-based
EC9706 [30] = assay: Cell cycle arrest in human EC9706 cells assessed as decrease in G2/M phase population at 8 uM after 24 hrs by propidium iodide staining based flow cytometry relative to control; type: functional
EC9706 [31] = assay: Cell cycle arrest in human EC9706 cells assessed as increase in G0/G1 phase population at 4 uM after 24 hrs by propidium iodide staining based flow cytometry relative to control; type: functional
EC9706 [32] = assay: Induction of morphological changes in human EC9706 cells assessed as chromatin condensation after 48 hrs by Hoechst 33342 staining based fluorescence microscopic method; type: functional, cell-based
ECa-109 cell line [33] = assay: Antiproliferative activity against human EC109 cells after 72 hrs by MTT assay; type: functional, cell-based; settings: ECa-109, 72 h
EC9706 [34] = assay: Induction of apoptosis in human EC9706 cells assessed as early apoptotic cells at 4 uM after 48 hrs by Annexin V-FITC/propidium iodide staining based flow cytometry (reference value: 0.68 to 1.58%); type: functional
Mus musculus [35] = assay: Acute toxicity in C57BL/6 mouse assessed as mortality at 2 g/kg, ig measured for 2 weeks; type: organism-based; settings: in vivo, po, 2000 mg/kg, 336 h
EC9706 [36] = assay: Induction of apoptosis in human EC9706 cells assessed as decrease in Bcl2 protein expression after 48 hrs by Western blot analysis; type: functional, cell-based

In the case of `COc1ccc(/C=N/NC(=O)c2cccc(S(=O)(=O)N3CCOCC3)c2)c(O)c1`, the Activity (ECa-109 cell line [1]) is reported as 17.8 - 22.4%, the IC50 (ECa-109 cell line [2]) is reported as greater than 20 µM and the Activity (ECa-109 cell line [3]) is reported as “Dose-dependent effect”. For the same molecule, the “fold change (FC)” value (EC9706 [4]) was 1.27, the IC50 (EC9706 [5]) was 1.09 µM and the Activity (ECa-109 cell line [6]) was 42.4 - 43%. The Activity (EC9706 [7]) was 8.64 - 26%, the Activity (ECa-109 cell line [8]) was 25.2 - 26.7% and the “fold change (FC)” value (ECa-109 cell line [9]) was 2.05. The Activity (EC9706 [10]) was “Active”, the Activity (EC9706 [11]) was “Active” and the Activity (Mus musculus [12]) was “Non-Toxic”. The Activity (ECa-109 cell line [13]) was 49%, the Activity (ECa-109 cell line [14]) was 21.1% and the Activity (EC9706 [15]) was “Dose-dependent effect”. For the same molecule, the “fold change (FC)” value (ECa-109 cell line [16]) was 1.2, the IC50 (GES1 [17]) was 14.4 µM and the Activity (EC9706 [18]) was 10.1%. For the same molecule, the Activity (ECa-109 cell line [19]) was 2.64%, the Activity (ECa-109 cell line [20]) was 27.2 - 63.6% and the Activity (ECa-109 cell line [21]) was 9.34%. The IC50 (MCF7) was 5.14 µM, the IC50 (GES1 [22]) was greater than 80 µM and the selectivity ratio at 72 h [23] was 7.2. For the same molecule, the IC50 (SMMC-7721) was 3.95 µM, the Activity (ECa-109 cell line [24]) was “Dose-dependent effect” and the Activity (ECa-109 cell line [25]) was 21.2%. For the same molecule, the “fold change (FC)” value (EC9706 [26]) was 1.16, the Activity (EC9706 [27]) was 15.2% and the “fold change (FC)” value (EC9706 [28]) was 1.4. For the same molecule, the Activity (EC9706 [29]) was “Dose-dependent effect”, the “fold change (FC)” value (EC9706 [30]) was 0.26 and the “fold change (FC)” value (EC9706 [31]) was 1.22. The Activity (EC9706 [32]) was “Dose-dependent effect”, the IC50 (ECa-109 cell line [33]) was 2.79 µM and the Activity (EC9706 [34]) was 10.8 - 29.9%. The Activity (Mus musculus [35]) was “Non-Toxic” and the Activity (EC9706 [36]) was “Dose-dependent effect”.
